According to PMC12655518, “Screening Novel Furoxan Derivatives as Potential Inhibitors Targeting Thioredoxin Glutathione Reductase of Fasciola gigantica” (Pharmaceuticals, 2025):
Like-named read-outs stand apart in the source and are kept apart here.

What was measured:
FgTGRsec (GR activity) = system: FgTGRsec (GR activity); set-up: method as in PMID 29526505; conditions: cited from earlier work
FgTGRsec (TrxR activity) [1] = biological target: T1, FgTGRsec (TrxR activity) (Fasciola gigantica, UniProt A0A0K1NYF8); set-up: method as in PMID 29526505; conditions: cited from earlier work
T1 sequence (A0A0K1NYF8 entry or part of it): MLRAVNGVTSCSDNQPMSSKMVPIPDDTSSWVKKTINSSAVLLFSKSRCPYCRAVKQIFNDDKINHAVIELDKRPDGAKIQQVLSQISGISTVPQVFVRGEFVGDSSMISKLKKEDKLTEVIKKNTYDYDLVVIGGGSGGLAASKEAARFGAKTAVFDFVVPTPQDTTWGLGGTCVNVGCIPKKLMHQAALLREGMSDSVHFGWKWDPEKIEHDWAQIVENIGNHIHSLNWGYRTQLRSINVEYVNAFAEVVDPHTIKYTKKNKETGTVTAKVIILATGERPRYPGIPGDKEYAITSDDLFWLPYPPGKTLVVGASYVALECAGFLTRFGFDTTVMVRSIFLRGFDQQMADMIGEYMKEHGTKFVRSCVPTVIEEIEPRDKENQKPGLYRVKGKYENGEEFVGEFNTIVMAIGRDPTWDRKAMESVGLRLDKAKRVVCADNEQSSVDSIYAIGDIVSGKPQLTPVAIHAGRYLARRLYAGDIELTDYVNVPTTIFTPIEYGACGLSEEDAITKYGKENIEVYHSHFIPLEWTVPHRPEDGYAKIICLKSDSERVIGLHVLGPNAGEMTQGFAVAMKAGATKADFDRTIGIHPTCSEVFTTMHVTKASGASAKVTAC

[2] = system: Taenia crassiceps cysticerci; set-up: method as in PMID 20431894; conditions: cited from earlier work
SjTGRsec (TrxR activity) = system: SjTGRsec (TrxR activity); set-up: method as in PMID 33902686; conditions: S. japonicum, result in words; cited from earlier work
FgTGRsec (TrxR activity) [3] = biological target: T1, FgTGRsec (TrxR activity); experiment: DTNB-based TrxR activity inhibition assay of FgTGRsec; assay type: biochemical; conditions: DTNB reduction, 20 min incubation, triplicate, read-out: IC50 of rFgTGRsec
Protocol: The TrxR activity of FgTGR and FgTGRsec was determined by using the 5, 5′-diothiobis (2-nitrobenzoic acid, DTNB, 4 mg/mL) (Sigma, St. Louis, MO, USA) reduction assay at room temperature. The reaction mixture was composed of 180 μL working buffer (0.1 mM potassium phosphate, pH 7.0, 10 mMEDTA, 100 μM β-nicotinamide adenine dinucleotide phosphate (NADPH) (Sigma)), 4 μL assay buffer (0.1 mM potassium phosphate, pH 7.0, 10 mM EDTA), 6 μL DTNB, and 10 μL rFgTGR or rFgTGRsec (600 μg/mL). The reaction was initiated by the adding DTNB at concentrations ranging from 100 μmol/L to 1000 μmol/L. An increase in absorbance at 412 nm was observed within the first 2 min. One unit of thioredoxin reductase (TrxR) activity was defined as the amount of enzyme that catalyzes the production of 1 μmol of 2-nitro-5-thiobenoic acid (TNB) per minute at room temperature. The reaction mixture without FgTGR or FgTGRsec was used as a negative control, and the processes of the negative experiments were the same as the above description.
To evaluate the effect of furoxan derivatives on FgTGRsec, the activity of TrxR was measured. The furoxan derivatives were soluble in dimethyl sulfoxide (DMSO), and seven concentrations of each derivative were prepared based on their distinct structures. For the DTNB-based TrxR activity inhibition assay, reaction mixtures were prepared as described in the TrxR activity assay protocol. The components were incubated for 20 min, after which the reaction was initiated by adding DTNB. The increase in absorbance at 412 nm was measured to evaluate the inhibitory effect of each furoxan derivative. The half-maximal inhibitory concentration (IC50) values of the compounds were calculated by GraphPad Prism v6.0c software. The reaction without FgTGRsec and furoxan derivatives served as the blank control, while the reaction with furoxan was the positive control. All assays were performed in triplicate.

| Structure (SMILES) | IC50 (FgTGRsec (TrxR activity) [3]) [µM] | also measured |
| --- | --- | --- |
| CC(=O)OC[C@H]1O[C@@H]([S-])[C@H](OC(C)=O)[C@@H](OC(C)=O)[C@@H]1OC(C)=O.CCP(CC)CC.[Au+] [AF, auranofin] |  | IC50 (FgTGRsec (GR activity)): 8.3 µM; IC50 (FgTGRsec (TrxR activity) [1]): 0.87 µM; IC50 ([2]; Taenia crassiceps cysticerci cultured with AF for 12 h): 3.8 µM; survival of cysticerci ([2]; after culturing with AF for 12 h): all dead |
| [O-][n+]1onc(-c2ccc(C(F)(F)F)nc2)c1CO [LGM-35] | 4.5 ± 0.35 | inhibition of TrxR activity (SjTGRsec (TrxR activity)): most significant inhibition |
| [O-][n+]1onc(-c2ccncc2)c1CO [LGM-2] | 15.2 ± 0.8 |  |
| [O-][n+]1onc(-c2ccc(C(F)(F)F)cc2)c1CN1CCN(c2ccccc2F)CC1 [CH-33] | 18.5 ± 2.57 |  |
| [O-][n+]1onc(-c2cccc(Cl)c2)c1CO [ZWJ-19] | 3.82 ± 0.33 |  |
| [O-][n+]1onc(-c2cccnc2)c1CO [LGM-1] | 6.93 ± 1.74 |  |
